Data: patent US6391549B1, “Monitoring gene expression” (Ramont University Authority for Applied Research & …, priority 1999, dated 2002)

Key:
[1] = test system: E. coli K10 cultures (lacZ expression); assay: on-line amperometric monitoring of lacZ product β-galactosidase in intact bacteria after IPTG induction; format: cell-based
Description: Bacterial strains and growth. E. coli K-12 strain K10 (Hfr, tonA22, ompF626, relA1, pit10, spoT1, T2^R CGSC [Coli Genetic Stot Center, New Haven, Conn.] 4234) was from the lab collection, Strains E. coli RO151 (MC4100 φ(csi-5::lacZ) and E. coli RH99 (RO151 rpoS359::Tn10) were described before (Weichart et. al., 1993). All cultures were grown aerobically at 37° C. with vigorous shaking in LB media (Miler, 1992), supplemented, when required, with 5 μg/ml of tetracycline or 25 μg/ml of kanamycin.
An on-line electroanalytical assay for β-galactosidase was used where the enzymatic activity was determined following induction with IPTG. Increasing concentrations of the inducer were added to cultures of E. coli K10 (Annette & Anthony, 1987) and the current signal was monitored on-line in all the cultures simultaneously (FIG. 3A).

[2] = test system: E. coil k-12 7118 carrying pUC-PhoA plasmid (lacZ promoter-phoA); assay: on-line amperometric monitoring of phoA product alkaline phosphatase under lacZ promoter in intact bacteria; format: cell-based, E. coli; conditions: IPTG 0, 0.1 mM and 1 mM, FIG. 10
Excerpt: The expression of the enzyme AP was done by constructing a multicopy plasmid. For the construction of the plasmid, we coupled a promoter-less phoA gene to the promoter of the lacZ gene. The use of multicopy plasmid as a vector for induciable genes requires a strong repressing system to prevent constitutive expression. Therefore we used a plasmid that cares the lacI^q gene coding for a lacZ strong repressor. The plasmid was designed to generate the correct fusion between the lacZ promoter and the phoA gene. The bacteria carrying this plasmid can be immobilized and used to monitor AP by electrochemical measurements of it's activity. After the construction of the plasmid, we measured AP activity of a cell suspension in response to the appearance of IPTG.
Strain E. coil k-12 7118[F′ lacI^qΔ(lacZ)M15 proA+B+/Δ(lac-proAB) thi supE]was used for all cloning procedures, plasmid propagation and production. AP production of cells carrying the pUC-PhoA plasmid was measured on-line by the electroanalytical technique that was used for β-galactosidase as described in example 2. As shown in FIG. 10 the enzymatic activity was determined following induction with elevated concentrations of IPTG (0, 1 mM and 0.1 mM).

[3] = test system: heavy metal responsive promoter-lacZ fusion in E coli K12 MC4100; assay: on-line monitoring of cadmium in soil samples with the reporter bacteria; format: cell-based
Description: (§1) The on-line monitoring procedure was performed as followed:
The same assay procedure was used to detect cadmium in soil samples. The soil was added directly to the screen-printed based electrochemical cells containing the bacteria culture as described above. Eight soil samples were monitored simultaneously by the system. The results as visualized on the computer screen are shown on FIG. 6A., Two duplicates of soil sample containing 3.8 PPM cadmium (measured by the Atomic absorption method) were compared with two duplicates of clean soil samples.

[4] = test system: heavy metal responsive promoter-lacZ fusion in E coli K12 MC4100; assay: on-line amperometric monitoring of heavy metals with bacteria carrying heavy metal responsive promoter fused to lacZ; format: cell-based; conditions: CdCl2 5, 10 and 50 PPM added to culture, FIG. 5
Description: An on-line electroanlytical assays for β-galactosidase was used to monitor on-line the presence of heavy metals. The expression of the reporter gene β-galactosidase that was fused to a heavy metal responsive gene was proportional to the heavy metal concentration. We were able to monitor eight different samples simultaneously using a disposable electrodes.
as §1
a. The bacteria culture was grown on LB medium to a density of 40 K.U.
b. The culture was added to the multiple-cell device followed by the addition of the β-galactosidase substrate p-aminophenyl-b-D-galactopyranoside (PAPG).
c. A potential of 220 mV Vs Ag/AgCl reference electrode was applied by the electrochemical measurement system and electroanalytical assay for β-galactosidase was carried out as described in Example 4.
The current signal was monitored simultaneously in all the cultures.

[5] = test system: heavy metal responsive promoter-lacZ fusion in E coli K12 MC4100; conditions: HgCl2 10, 50, 100 and 500 PPM added to sea-water, FIG. 7
Description: Electrochemical measurements was performed using a disposable three-electrode cell made of polystyrene tubes and based on a screen-printed electrode (total volume of 0.3 ml). The assay was performed directly in the electrochemical cells that was vibrated to achieve mixing. This system allows simultaneous measurements of eight samples using a potentiostat connected to 8 channel multiplexer. The electrical current, resulting in all 8 cultures, from the activity of β-galactosidase, was visualized in real time on the computer screen. The on-line monitoring procedure was performed as followed:
The game procedure as described on Example 4 was used to monitor mercury in water and sea water samples.

β-galactosidase = β-galactosidase (Escherichia coli, UniProt P00722); conditions: purified enzyme, PAPG substrate, 220 mV
Chain of β-galactosidase (P00722 2-1024 limits assumed): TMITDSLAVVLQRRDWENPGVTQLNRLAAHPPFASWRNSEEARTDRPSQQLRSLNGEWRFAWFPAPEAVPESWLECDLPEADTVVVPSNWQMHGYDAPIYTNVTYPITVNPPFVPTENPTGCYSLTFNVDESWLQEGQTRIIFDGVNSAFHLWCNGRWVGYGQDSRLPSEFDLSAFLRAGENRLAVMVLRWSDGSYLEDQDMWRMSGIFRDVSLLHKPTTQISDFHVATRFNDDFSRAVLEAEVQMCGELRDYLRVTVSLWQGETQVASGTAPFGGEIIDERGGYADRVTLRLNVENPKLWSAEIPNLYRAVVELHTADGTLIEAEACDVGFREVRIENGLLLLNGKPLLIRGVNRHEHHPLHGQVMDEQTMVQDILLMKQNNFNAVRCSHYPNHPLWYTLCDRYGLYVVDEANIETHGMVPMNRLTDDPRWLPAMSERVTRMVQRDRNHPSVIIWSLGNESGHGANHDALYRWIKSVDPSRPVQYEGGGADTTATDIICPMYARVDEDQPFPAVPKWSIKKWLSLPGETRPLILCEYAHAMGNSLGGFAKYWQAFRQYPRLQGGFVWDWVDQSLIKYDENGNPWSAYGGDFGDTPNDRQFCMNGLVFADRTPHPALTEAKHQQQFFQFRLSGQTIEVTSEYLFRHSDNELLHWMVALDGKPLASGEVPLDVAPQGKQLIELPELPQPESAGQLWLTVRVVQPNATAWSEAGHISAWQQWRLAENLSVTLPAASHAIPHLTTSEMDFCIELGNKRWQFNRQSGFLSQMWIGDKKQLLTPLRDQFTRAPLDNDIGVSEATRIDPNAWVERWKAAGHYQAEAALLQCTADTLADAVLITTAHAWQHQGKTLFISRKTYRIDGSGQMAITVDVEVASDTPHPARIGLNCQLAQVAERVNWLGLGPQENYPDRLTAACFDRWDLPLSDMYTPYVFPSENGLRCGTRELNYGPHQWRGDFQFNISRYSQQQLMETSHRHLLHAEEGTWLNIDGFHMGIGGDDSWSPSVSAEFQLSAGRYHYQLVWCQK
Description: The amperometric assay. Electrochemical measurements were performed using a disposable three-electrode cell, based on a screen-printed electrode (total volume of 0.3 ml). […] Graphite ink was used as the counter electrode and Ag/AgCl ink were the reference electrodes. Disposable graphite electrodes in cylindrical form (made from pencil leads, HB 0.9 mm) were used as the working electrodes. The assay was performed directly in the electrochemical cells which were vibrated to achieve mixing. The same screen-printed electrodes and graphite working electrode were also used for direct measurements in cultures. In this case the electrodes were placed inside the Erlenmeyer flask as shown in FIG. 1 and mixing was achieved by bubbling air. The graphite electrode was held at 220 mV versus the reference electrode and the substrate PAPG concentration was 0.4 mg/ml.
The electrochemical measurements were performed using a PAR VersaStat potentiostat connected to 8 channel PAR 314 Model multiplexer (EG&C Princeton Applied Research, Princeton, N.J.). This system allows simultaneous measurements of eight samples with disposable electrochemical cells. The measurements were controlled by a LAbVIEW-based software using a Windows 95 operating system. […]

## CC(C)S[C@@H]1O[C@H](CO)[C@H](O)[C@H](O)[C@H]1O [IPTG, isopropyl-β-D-thiogalactopyranoside]
[1]; E. coli K10, FIG. 3B
  lowest IPTG concentration from which the slope was proportional: ≥ 0.5 µM
[1]; E. coli K10, IPTG 0.5-50 μM, FIG. 3B
  slope of the current signals with time (β-galactosidase induction): proportional to the concentrations of IPTG added
[2]
  current signals (alkaline phosphatase activity after induction): proportional to IPTG concentations

## [Cl][Cd][Cl] [cadmium, CdCl2]
[3]; soil sample containing 3.8 PPM cadmium, FIG. 6
  current signals versus clean soil samples: substantially higher
[3]; soil samples, average of several experiments, FIG. 6B
  lowest cadmium concentration detected in soil samples: 0.5 PPM
[4]
  slope of the current signals with time (reporter induction): proportional to the concentrations of cadmium added

## HgCl2
[5]
  current signal (reporter induction): proportional to the mercury concentrations

## β-D-galactoside galatohydrolase; EC 3.2.1.23 [β-galactosidase]
β-galactosidase
  detection limit: 1 unit/ml
